# In patent US10138230B2, “Autotaxin inhibitors” (CANCER RESEARCH TECHNOLOGY LIMITED, priority 2015, dated 2018):
# pIC50: −log10 of the molar value. Counter-ions that a name gives are not always drawn.
# Molecular target: human recombinant ATX (Homo sapiens (Human), UniProt Q13822)
# Assay: Autotaxin (ATX) activity Quanta Red assay
# Type: biochemical
# Settings: 15 μM Rac-1-Palmitoyl-glycero-3-phosphocholine, 2 hours room temperature, determined in duplicate
# Experimental: The ATX enzyme assay (Quanta Red assay) described in accompanying Example section may be used to measure the pharmacological effects of the compounds of the present invention.
# Autotaxin (ATX) Activity Quanta Red Assay
# Measuring ATX activity using an enzyme coupled Quanta Red assay (Thermo Scientific—Pierce Protein Research Products, Product #15159) was determined as follows. 8 μL human recombinant ATX (final concentration 0.8 μg/mL) in 1× Assay buffer containing 50 mM Tris-HCl (pH 8.0), 5 mM CaCl2 was added to an opaque black flat-bottom 384-well plate (Corning, #3575) containing 2 μL test compound in 40% DMSO (4% final DMSO concentration). 10 μL of Quanta Red, Horseradish peroxidase (HRP), Choline Oxidase (CO), Rac-1-Palmitoyl-glycero-3-phosphocholine solution (final concentration 1:250 for Quanta Red, 0.5units/ml HRP, 0.5units/ml CO, 15 μM Rac-1-Palmitoyl-glycero-3-phosphocholine) in 1× assay buffer (as described previously) was added to each well to start the reaction and the plate was incubated at room temperature for 2 hours. The reaction was stopped after 2 hours with a 20 μL addition of Quanta Red Stop solution (1:20 dilution in distilled water). The above-described mixture with DMSO alone was used as a positive control whereas that with DMSO alone without ATX was taken as a negative control.
# For each test compound, ten concentrations were measured covering a range of 6.1 nM to 120 μM to determine IC50 values. The top concentration was decreased to 1.2 μM when a test compound's IC50 value was evaluated in low nanomolar range. Fluorescence was determined in a BMG Labtech Pherastar plus plate reader ([…]). Data were analysed using Excel fit software. IC50 values were determined in duplicate.
row,SMILES,pIC50
1,"CC1CCN(Cc2ccc(N3C[C@H](NC(=O)c4nnc(CCc5ccc(Cl)cc5)s4)CC3=O)cc2)CC1 [Compound F138, 5-[2-(4-chlorophenyl)ethyl]-N-[(3R)-1-[4-[(4-methyl-1-piperidyl)methyl]phenyl]-5-oxo-pyrrolidin-3-yl]-1,3,4-thiadiazole-2-carboxamide]",8.30
2,"O=C(NC1CC(=O)N(c2ccc(CN3CC4CC4C3)cc2)C1)c1nnc(CCc2ccc(Cl)cc2)s1 (stereo not drawn) [Compound F140, N-[1-[4-(3-azabicyclo[3.1.0]hexan-3-ylmethyl)phenyl]-5-oxo-pyrrolidin-3-yl]-5-[2-(4-chlorophenyl)ethyl]-1,3,4-thiadiazole-2-carboxamide]",8.30
3,"COCCN(C)Cc1ccc(N2CC(NC(=O)c3nnc(CCc4ccc(Cl)cc4)s3)CC2=O)cc1 (stereo not drawn) [Compound F142, 5-[2-(4-chlorophenyl)ethyl]-N-[1-[4-[[2-methoxyethyl(methyl)amino]methyl]phenyl]-5-oxo-pyrrolidin-3-yl]-1,3,4-thiadiazole-2-carboxamide]",8.05
4,"O=C(N[C@@H]1CC(=O)N(c2ccc(CN3CCCCC3)cc2)C1)c1cc(CCc2ccc(Cl)cc2)on1 [Compound F143, 5-[2-(4-chlorophenyl)ethyl]-N-[(3R)-5-oxo-1-[4-(1-piperidylmethyl)phenyl]pyrrolidin-3-yl]isoxazole-3-carboxamide]",8.70
5,"O=C(NC1CC(=O)N(c2ccc(CN3CCCCC3)cc2)C1)c1cc(CCc2ccc(Cl)cc2)on1 (stereo not drawn) [Compound F144, 5-[2-(4-chlorophenyl)ethyl]-N-[5-oxo-1-[4-(1-piperidylmethyl)phenyl]pyrrolidin-3-yl]isoxazole-3-carboxamide]",8.70
6,"O=C(N[C@H]1CC(=O)N(c2ccc(CN3CCCCC3)cc2)C1)c1cc(CCc2ccc(Cl)cc2)on1 [Compound F145, 5-[2-(4-chlorophenyl)ethyl]-N-[(3S)-5-oxo-1-[4-(1-piperidylmethyl)phenyl]pyrrolidin-3-yl]isoxazole-3-carboxamide]",8.52
7,"O=C(Nc1nnc(CCC2CCCCC2)s1)C1CC(=O)N(c2ccc(CN3CCOCC3)cc2)C1 (stereo not drawn) [Compound F147, N-[5-(2-cyclohexylethyl)-1,3,4-thiadiazol-2-yl]-1-[4-(morpholinomethyl)phenyl]-5-oxo-pyrrolidine-3-carboxamide]",8.70
8,"CN(Cc1ccc(N2C[C@@H](C(=O)Nc3ccc(CCc4ccc(F)cc4)nn3)CC2=O)cc1)C1CCOC1 (stereo partly drawn) [Compound F148, (3S)-N-[6-[2-(4-fluorophenyl)ethyl]pyridazin-3-yl]-1-[4-[[methyl(tetrahydrofuran-3-yl)amino]methyl]phenyl]-5-oxo-pyrrolidine-3-carboxamide]",8.22
9,"O=C(Nc1ccc(CCc2ccc(F)cc2)nn1)C1CC(=O)N(c2ccc(CN3CCOCC3)cc2)C1 (stereo not drawn) [Compound F149, 1-(4-morpholin-4-ylmethyl-phenyl)-5-oxo-pyrrolidine-3-carboxylic acid {6-[2-(4-fluoro-phenyl)-ethyl]-pyridazin-3-yl}-amide]",8.15
10,"COc1ccc(CCc2nnc(NC(=O)C3CC(=O)N(c4ccc(CN5CCOCC5)cc4)C3)s2)cc1 (stereo not drawn) [Compound F150, N-[5-[2-(4-methoxyphenyl)ethyl]-1,3,4-thiadiazol-2-yl]-1-[4-(morpholinomethyl)phenyl]-5-oxo-pyrrolidine-3-carboxamide]",8.10
11,"O=C(Nc1nnc(CCc2ccc(Cl)cc2)s1)C1CC(=O)N(c2ccc(CN3CCCC3)cc2)C1 (stereo not drawn) [Compound F151, N-[5-[2-(4-chlorophenyl)ethyl]-1,3,4-thiadiazol-2-yl]-5-oxo-1-[4-(pyrrolidin-1-ylmethyl)phenyl] pyrrolidine-3-carboxamide]",8.05
12,"CN(Cc1ccc(N2C[C@@H](C(=O)Nc3cc(CCc4ccc(Cl)cc4)on3)CC2=O)cc1)C1CCOC1 (stereo partly drawn) [Compound F152, (3S)-N-[5-[2-(4-chlorophenyl)ethyl]isoxazol-3-yl]-1-[4-[[methyl(tetrahydrofuran-3-yl)amino]methyl]phenyl]-5-oxo-pyrrolidine-3-carboxamide]",8.70
13,"O=C1CC(CNc2nnc(CCc3ccc(Cl)cc3)s2)CN1c1ccc(CN2CCOCC2)cc1 (stereo not drawn) [Compound F153, 4-({5-[2-(4-Chloro-phenyl)-ethyl]-[1,3,4]thiadiazol-2-ylamino}-methyl)-1-(4-morpholin-4-ylmethyl-phenyl)-pyrrolidin-2-one]",8.70
14,"O=C(Nc1nnc(SCc2ccc(F)cc2)s1)C1CC(=O)N(c2ccc(CN3CCOCC3)cc2)C1 (stereo not drawn) [Compound F154, 1-(4-morpholin-4-ylmethyl-phenyl)-5-oxo-pyrrolidine-3-carboxylic acid [5-(4-fluoro-benzylsulfanyl)-[1,3,4]thiadiazol-2-yl]-amide]",8.52
15,"CN(Cc1ccc(N2C[C@@H](C(=O)Nc3ccc(CCc4ccc(F)cc4)nn3)CC2=O)cc1)C1COC1 [Compound F155, (3S)-N-[6-[2-(4-fluorophenyl)ethyl]pyridazin-3-yl]-1-[4-[[methyl(oxetan-3-yl)amino]methyl]phenyl]-5-oxo-pyrrolidine-3-carboxamide]",7.96
16,"O=C(Nc1nnc(CCc2ccc(Cl)cc2)s1)C1CC(=O)N(c2ccc(CN3CCCNCC3)cc2)C1 (stereo not drawn) [Compound F156, 1-(4-[1,4]Diazepan-1-ylmethyl-phenyl)-5-oxo-pyrrolidine-3-carboxylic acid {5-[2-(4-chloro-phenyl)-ethyl]-[1,3,4]thiadiazol-2-yl}-amide; dihydrochloride]",7.85
17,"CC(C)(C)OC(=O)N1CCN(Cc2ccc(N3CC(C(=O)Nc4nnc(CCc5ccc(Cl)cc5)s4)CC3=O)cc2)CC1 (stereo not drawn) [Compound F157, tert-butyl 4-[[4-[4-[[5-[2-(4-chlorophenyl)ethyl]-1,3,4-thiadiazol-2-yl]carbamoyl]-2-oxo-pyrrolidin-1-yl]phenyl]methyl] piperazine-1-carboxylate]",7.82
18,"O=C(Nc1cc(CCc2ccccc2)on1)C1CC(=O)N(c2ccc(CN3CCOCC3)cc2)C1 (stereo not drawn) [Compound F158, 1-[4-(morpholinomethyl)phenyl]-5-oxo-N-[5-(2-phenylethyl)isoxazol-3-yl]pyrrolidine-3-carboxamide]",7.77
19,"CC(C)N(C)Cc1ccc(N2CC(C(=O)Nc3nnc(CCc4ccc(Cl)cc4)s3)CC2=O)cc1 (stereo not drawn) [Compound F159, N-[5-[2-(4-chlorophenyl)ethyl]-1,3,4-thiadiazol-2-yl]-1-[4-[[isopropyl (methyl)amino]methyl]phenyl]-5-oxo-pyrrolidine-3-carboxamide]",7.74
20,"O=C(Nc1nnc(CCc2ccc(Cl)cc2)s1)C1CC(=O)N(c2ccc(CN3CCNCC3)cc2)C1 (stereo not drawn) [Compound F160, 5-Oxo-1-(4-piperazin-1-ylmethyl-phenyl)-pyrrolidine-3-carboxylic acid {5-[2-(4-chloro-phenyl)-ethyl]-[1,3,4]thiadiazol-2-yl}-amide; dihydrochloride]",7.62
21,"O=C(Nc1nnc(CCc2ccc(Cl)cc2)s1)[C@@H]1CC(=O)N(c2ccc(CN3CCOCC3)cc2)C1 [Compound F161, (3R)-N-[5-[2-(4-chlorophenyl)ethyl]-1,3,4-thiadiazol-2-yl]-1-[4-(morpholinomethyl)phenyl]-5-oxo-pyrrolidine-3-carboxamide]",7.43
22,"O=C(Nc1ccc(CCc2ccccc2)nn1)C1CC(=O)N(c2ccc(CN3CCOCC3)cc2)C1 (stereo not drawn) [Compound F162, 1-[4-(morpholinomethyl)phenyl]-5-oxo-N-[6-(2-phenylethyl)pyridazin-3-yl]pyrrolidine-3-carboxamide]",7.43
23,"O=C(Nc1nnc(CCc2ccc(Cl)cc2)s1)[C@@H]1CC(=O)N(c2ccc(CN3CCCCC3)cc2)C1 [Compound F163, (3R)-N-[5-[2-(4-chlorophenyl)ethyl]-1,3,4-thiadiazol-2-yl]-5-oxo-1-[4-(1-piperidylmethyl)phenyl] pyrrolidine-3-carboxamide]",7.31
24,"O=C(Nc1nnc(CCC2CCCCO2)s1)[C@H]1CC(=O)N(c2ccc(CN3CCCCC3)cc2)C1 (stereo partly drawn) [Compound F164, (3S)-5-oxo-1-[4-(1-piperidylmethyl)phenyl]-N-[5-(2-tetrahydropyran-2-ylethyl)-1,3,4-thiadiazol-2-yl]pyrrolidine-3-carboxamide]",7.15
25,"O=C(Nc1nnc(CCC2CCCCO2)s1)[C@H]1CC(=O)N(c2ccc(CN3CCOCC3)cc2)C1 (stereo partly drawn) [Compound F165, (3S)-1-[4-(morpholinomethyl)phenyl]-5-oxo-N-[5-(2-tetrahydropyran-2-ylethyl)-1,3,4-thiadiazol-2-yl]pyrrolidine-3-carboxamide]",7.02
26,"O=C(Nc1nnc(CCC2CCCC2)s1)C1CC(=O)N(c2ccc(CN3CCCCC3)cc2)C1 (stereo not drawn) [Compound F166, N-[5-(2-cyclopentylethyl)-1,3,4-thiadiazol-2-yl]-5-oxo-1-[4-(1-piperidylmethyl)phenyl] pyrrolidine-3-carboxamide]",7.80
27,"O=C(N[C@H]1CCN(c2ccc(CN3CCOCC3)cc2)C1)c1nnc(CCc2ccc(Cl)cc2)s1 [Compound F167, 5-[2-(4-Chloro-phenyl)-ethyl]-[1,3,4]thiadiazole-2-carboxylic acid [(S)-1-(4-morpholin-4-ylmethyl-phenyl)-pyrrolidin-3-yl]-amide]",7.80
